Tested on: Resectable Pancreatic Adenocarcinoma
Test: Disease free survival after adjuvant gemcitabine
Assay type: in vivo, human
Method: Statistical analysis was performed using software SPSS version 16 (SPSS Inc., Chicago, Ill.). P-values <0.05 were regarded as significant. Disease free survival (DFS) was analyzed using the Kaplan-Meier method and compared with the log-rank test.
The connectivity concept of the present invention can be used with actual patient profiles. Patients were recruited under the Phase II Study of an Individualized Drug Treatment Selection Process Based on a Tumor Xenograft Model for Patients with Resectable Pancreatic Adenocarcinoma (JHOC-J0507 JHOC-05041402, NCT00276744). All patients signed the informed consent of this trial. Twenty-four of the patients with complete follow-up data were included in this study. Direct-patient xenograft cases from the PancXenoBank, Rubio-Viqueira B, Jimeno A, Cusatis G, et al: An In vivo Platform for Translational Drug Development in Pancreatic Cancer. Clin Cancer Res 12:4652-4661, 2006, were also used.
The mean age of diagnosis for these patients is 65 years (range from 41 to 81 years). All patients received gemcitabine as adjuvant chemotherapy. Herrmann R, Bodoky G, Ruhstaller T, et al: Gemcitabine Plus Capecitabine Compared With Gemcitabine Alone in Advanced Pancreatic Cancer: A Randomized, Multicenter, Phase III Trial of the Swiss Group for Clinical Cancer Research and the Central European Cooperative Oncology Group. […] Cancer 85:1261-1268, 1999. […] See Oettle H, Post S, Neuhaus P, et al: Adjuvant Chemotherapy with Gemcitabine vs. Observation in Patients Undergoing Curative-Intent Resection of Pancreatic Cancer: A Randomized Controlled Trial. JAMA 297:267-277, 2007. The median DFS for these patients was 291 days.
Using the methods of the present invention, where a patient is connected to a sensitive cell line, the patient will be predicted as sensitive to gemcitabine and vice versa. This approach achieved an overall prediction accuracy of 71% on these retrospective patient samples. […] The positive predicted value and negative predicted value are 73% and 69%, respectively. […]

## Nc1ccn([C@@H]2O[C@H](CO)[C@@H](O)C2(F)F)c(=O)n1 [gemcitabine]
All 24 patients, gemcitabine as adjuvant chemotherapy
  median DFS: 291 days
Predicted gemcitabine resistant group
  median DFS: 162 days
Predicted gemcitabine sensitive group
  median DFS: 491 days

From patent publication US20090221522A1, “METHODS TO CORRECT GENE SET EXPRESSION PROFILES TO DRUG SENSITIVITY” (The Johns Hopkins University, priority 2008, published 2009)
